Like-named read-outs stand apart in the source and are kept apart here.
Tests used:
F17eG lectin domain = test: CFG mammalian printed glycan array version 2 (experiment 400), F17eG; format: binding, Escherichia coli; conditions: CFG glycan array version 2; F17G at 200 µg/mL; SEM in parentheses
Description: (§1) The slide was dried under a stream of nitrogen.

F17fG lectin domain = test: CFG mammalian printed glycan array version 2 (experiment 400), F17fG; format: binding, Escherichia coli; conditions: CFG glycan array version 2; F17G at 200 µg/mL; SEM in parentheses
Description: as §1

F17dG lectin domain = F17dG lectin domain (Escherichia coli, UniProt Q47199); conditions: CFG glycan array version 2; F17G at 200 µg/mL; SEM in parentheses
F17dG lectin domain, sequence (Q47199 23-199): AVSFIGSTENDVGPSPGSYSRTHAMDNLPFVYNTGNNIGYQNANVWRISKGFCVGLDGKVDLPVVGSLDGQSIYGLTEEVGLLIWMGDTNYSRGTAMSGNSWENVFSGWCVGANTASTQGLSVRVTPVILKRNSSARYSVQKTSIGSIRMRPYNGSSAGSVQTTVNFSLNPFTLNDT
Protocol: (§2) A microarray presenting 264 different glycans (mammalian printed array version 2) was used to evaluate if the F17G variant lectin domains differ in the range of glycan receptors that they recognize, thereby establishing tropism. The microarray was set up within the Consortium for Functional Glycomics (CFG) ([20], and supplemental data). Binding of F17G (200 µg/mL) was detected using anti-F17G polyclonal rabbit IgG (10 µg/mL), followed by fluorescently labelled goat anti-rabbit polyclonal antibodies (IgG-488, 5 µg/mL).
(§3) A microarray presenting 264 different glycans (mammalian printed array version 2 from the CFG, experiment 400) was used to evaluate whether the F17G variant lectin domains differ in the range of glycan receptors that they can recognize, thereby establishing strain-dependent tropism. […] The glycan array screening has been repeated for F17aG only on printed array version 4.1 (experiment 2053) (Figure 1).
(§4) Printed array version 2 at the Consortium for Functional Glycomics was used for glycan array screening of the variant F17G receptor binding domains. Slides were printed, with six replicates for each glycan, using glycan spotting concentrations of 100 μM, at the Consortium Carbohydrate Synthesis/Protein Expression Core D located at the Scripps Research Institute onto Schott Nexterion H slides (Schott Cat. No. 1070936B). Slide conditioning: preprinted slides were soaked in deionized water for 5 minutes at room temperature and dried under a stream of nitrogen. TSM buffer (20 mM Tris-HCl, pH 7.4, or MOPS 20 mM; 150 mM NaCl; 2 mM CaCl2, 2 mM MgCl2) was used as wash buffer (TSM buffer + 0.05% Tween 20) or binding buffer (TSM buffer + 0.05% Tween 20 + 1% BSA). (1) F17G was diluted to 200 μg/mL (Figure 1) in TSM binding buffer. (2) 50 μL of F17G was applied to the printed surface and coverslipped. (3) The slide was incubated, protected from light, in a humidified chamber for 1 hour at RT. (4) The slide was washed once in TSM wash buffer. 50 μL of the anti-F17G (10 μg/mL) polyclonal rabbit IgG were applied, coverslipped and incubated for 1 h at RT. (5) The slide was washed once in TSM wash buffer. Fifty μL of fluorescently labelled secondary goat anti-rabbit polyclonal antibodies (IgG-488, 5 µg/mL) were applied, coverslipped and incubated for 1 h at RT. (6) Slide was removed, followed by the coverslip, and washed for 10 s each in TSM wash buffer, TSM wash buffer lacking Tween 20, and deionized water. The slide was dried under a stream of nitrogen. (7) The binding image was read in a Perkin Elmer Microscanarray XL4000 scanner and tiff file of image stored. (8) Image analysis was performed using Imagene (V.6) image analysis software. (9) Raw data results files were generated in Excel format and uploaded to the Consortium database as .dat files. (10) Imagene data was uploaded to the database as .txt files.

F17aG lectin domain = F17aG lectin domain (Escherichia coli, UniProt Q99003); conditions: CFG glycan array version 2; F17G at 200 µg/mL; SEM in parentheses
F17aG lectin domain, sequence (Q99003 23-199): as the sequence (Q47199 23-199) above, with P16L, N33D, G35R, N37K, R47H, N90K counted along it
Protocol: as §2, §3, §4

F17bG lectin domain = F17bG lectin domain (Escherichia coli, UniProt Q47200); conditions: CFG glycan array version 2; F17G at 200 µg/mL; SEM in parentheses
F17bG lectin domain, sequence (Q47200 23-199): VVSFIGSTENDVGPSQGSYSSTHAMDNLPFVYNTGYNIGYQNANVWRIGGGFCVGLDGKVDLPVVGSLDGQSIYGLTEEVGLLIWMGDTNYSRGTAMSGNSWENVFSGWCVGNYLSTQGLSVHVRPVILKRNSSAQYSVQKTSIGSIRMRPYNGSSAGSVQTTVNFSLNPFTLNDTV
Protocol: as §2, §3, §4

[1] = biological target: T1, F17aG receptor-binding domain (Escherichia coli, UniProt Q99003); test: biochemical; conditions: SPR steady state, 25 °C, pH 7.4
T1 construct: variants of the lectin domains with oligolysine (4Lys) tails have been constructed; made in house; host or cells: E. coli (periplasm)
T1 sequence (Q99003 23-199): as the sequence (Q47199 23-199) above, with P16L, N33D, G35R, N37K, R47H, N90K counted along it
Protocol: The affinity profiles were determined by surface plasmon resonance (SPR) measurements using a BiaCore 3000 instrument (GE Healthcare). […] The proteins were covalently immobilized on CM5 sensor chips (Biacore AB) to an average density of 2000 RU (resonance units in pg/mm^2). On each chip, one flow cell was coated with a camel single domain antibody for use as a reference cell. The other three flow cells (Fc2, Fc3 and Fc4) were coated with three different F17G variants. Carbohydrate concentrations ranging from 10 µM to 10 mM in running buffer (20 mM Hepes, pH 7.4; 150 mM NaCl; 3 mM EDTA and 0.005% surfactant Tween 20) were incubated for one minute on all flow cells simultaneously, at 25 °C and at a flow rate of 30 µL/min. Complete dissociation of the carbohydrates in running buffer was verified before starting a new binding cycle. All binding cycles were performed in duplicate, including a zero concentration cycle (injection of pure running buffer). All analysis was done using the BIAeval software. In each case the equilibrium resonance signal from the reference cell was subtracted from that of the various F17G flow cells (2-1, 3-1, 4-1). A Langmuir binding isotherm with a 1:1 stoichiometry was fitted to the data, from which the equilibrium dissociation constants, Kd, were obtained.

[2] = read-out: Affinity range (Kd class), F17aG
[3] = good fit for at least three related experiments, read-out: dissociation constant Kd, F17aG

| Compound | Relative Fluorescence Units (RFU), averaged over six replicates, F17eG (F17eG lectin domain) | Relative Fluorescence Units (RFU), averaged over six replicates, F17fG (F17fG lectin domain) | Relative Fluorescence Units (RFU), averaged over six replicates, F17dG (F17dG lectin domain) | Relative Fluorescence Units (RFU), averaged over six replicates, F17aG (F17aG lectin domain) | Relative Fluorescence Units (RFU), averaged over six replicates, F17bG (F17bG lectin domain) | Kd [1, 2] | Kd [1, 3] |
| --- | --- | --- | --- | --- | --- | --- | --- |
| CC(=O)N[C@H]1[C@H](OCCN)O[C@H](CO)[C@@H](O)[C@@H]1O [GlcNAcβ-Sp0] | 34,825 (6,475) RFU | 5,354 (1,572) RFU | 3,377 (643) RFU | 15,621 (2,697) RFU | 14,972 (2,705) RFU |  |  |
| CC(=O)N[C@H]1[C@H](OCCCN)O[C@H](CO)[C@@H](O[C@@H]2O[C@H](CO[C@@H]3O[C@H](CO)[C@@H](O)[C@H](O)[C@H]3NC(C)=O)[C@H](O)[C@H](O[C@@H]3O[C@H](CO)[C@@H](O)[C@H](O)[C@H]3NC(C)=O)[C@H]2O)[C@@H]1O [GlcNAcβ1,3(GlcNAcβ1,6)Galβ1,4GlcNAcβ-Sp8] | 41,907 (4,694) RFU | 37,083 (5,973) RFU | 17,195 (3,442) RFU | 44,391 (3,949) RFU | 21,630 (2,490) RFU |  |  |
| CC(=O)N[C@H]1[C@H](O[C@H]2[C@@H](O)[C@@H](CO)O[C@@H](OCCCN)[C@@H]2O)O[C@H](CO)[C@@H](O)[C@@H]1O [GlcNAcβ1,3Galβ-Sp8] | 38,836 (5,631) RFU | 27,648 (1,137) RFU | 16,277 (9,959) RFU | 32,288 (4,175) RFU | 16,310 (1,907) RFU |  |  |
| CC(=O)N[C@H]1[C@H](O[C@H]2[C@@H](O)[C@@H](CO)O[C@@H](O[C@H]3[C@H](O)[C@@H](O)C(O)O[C@@H]3CO)[C@@H]2O)O[C@H](CO)[C@@H](O)[C@@H]1O[C@@H]1O[C@H](CO)[C@H](O)[C@H](O)[C@H]1O[C@@H]1O[C@@H](C)[C@@H](O)[C@@H](O)[C@@H]1O (some centres unmarked) [Fucα1,2Galβ1,3GlcNAcβ1,3Galβ1,4Glc] |  |  |  |  |  | > 100 mM |  |
| CC(=O)N[C@H]1[C@H](OC[C@H]2O[C@H](OCCCN)[C@H](NC(C)=O)[C@@H](O[C@@H]3O[C@H](CO)[C@H](O)[C@H](O)[C@H]3O)[C@H]2O)O[C@H](CO)[C@@H](O)[C@@H]1O [Galβ1,3(GlcNAcβ1,6)GalNAcα-Sp8] | 50,893 (5,540) RFU | 3,195 (811) RFU | 3,850 (364) RFU | 10,256 (1,410) RFU | 6,215 (1,046) RFU |  |  |
| CO[C@H]1O[C@H](CO)[C@@H](O)[C@H](O)[C@H]1NC(C)=O [Me α N-acetylglucosamine] |  |  |  |  |  |  | 9.8 mM |
| NCCCO[C@@H]1O[C@H](CO)[C@@H](O)[C@H](O)[C@H]1N [GlcNH2β-Sp8] | 548 (256) RFU | 1,385 (464) RFU | 1,950 (1,358) RFU | 554 (117) RFU | 7,281 (1,506) RFU |  |  |
| GlcNAcβ1,6(Galβ1,3)GalNAcα-Sp8 |  | 3,206(997) RFU | 3,492 (658) RFU | 12,541 (1,115) RFU | 6,017 (587) RFU |  |  |
| GlcNAcβ1,6GalNAcα-Sp8 | 43,848 (4,140) RFU | 26,522 (11,365) RFU | 2,432 (406) RFU | 11,120 (1,871) RFU | 6,683 (947) RFU |  |  |
| GlcNAcβ1,4(GlcNAcβ1,6)GalNAcα-Sp8 | 38,200 (2,394) RFU | 19,830 (4,279) RFU | 1,680 (92) RFU | 4,520 (2,808) RFU | 12,960 (1,692) RFU |  |  |
| GlcNAcβ1-3Galβ1,4GlcNAcβ-Sp8 | 49,223 (5,377) RFU | 28,888 (6,925) RFU | 17,991 (4,401) RFU | 51,880 (5,023) RFU | 15,483 (1,729) RFU |  |  |
| CC(=O)N[C@H]1[C@H](OCCCN)O[C@H](CO)[C@@H](O[C@@H]2O[C@H](CO)[C@@H](O[C@@H]3O[C@H](CO)[C@@H](O)[C@H](O)[C@H]3NC(C)=O)[C@H](O)[C@H]2NC(C)=O)[C@@H]1O [GlcNAcβ1,4GlcNAcβ1,4GlcNAcβ-Sp8] | 5,689 (1,085) RFU | 2,418 (613) RFU | 1,690 (251) RFU | 848 (88) RFU | 2,860 (706) RFU |  |  |
| CO[C@@H]1O[C@H](CO)[C@@H](O)[C@H](O)[C@H]1NC(C)=O [Me β N-acetylglucosamine] |  |  |  |  |  | 1 to 10 mM | 1.2 mM |
| COc1ccc(O[C@@H]2O[C@H](CO)[C@@H](O[C@@H]3O[C@H](CO)[C@H](O)[C@H](O)[C@H]3NC(C)=O)[C@H](O)[C@H]2NC(C)=O)cc1 [GalNAcβ1,4GlcNAcβ1-methoxy phenyl] |  |  |  |  |  | 1 to 10 mM |  |
| CC(=O)N[C@H]1[C@H](O[C@H]2[C@@H](O)[C@@H](CO)O[C@@H](O[C@H]3[C@H](O)[C@@H](O)C(O)O[C@@H]3CO)[C@@H]2O)O[C@H](CO)[C@@H](O[C@@H]2O[C@H](CO)[C@H](O)[C@H](O)[C@H]2O)[C@@H]1O (stereo partly drawn) [Galβ1,4GlcNAcβ 1,3Gal β1,4Glc] |  |  |  |  |  | 10 to 100 mM |  |
| Gal β1,4 GlcNAc |  |  |  |  |  | 1 to 10 mM |  |
| CC(=O)N[C@H]1C(O)O[C@H](CO)[C@H](O)[C@@H]1O[C@@H]1O[C@H](CO)[C@H](O)[C@H](O)[C@H]1O (some centres unmarked) [Galβ1,3GalNAc] |  |  |  |  |  | 10 to 100 mM |  |
| GalNAcβ1,3GalNAcα-Sp8 | 50,791 (5,749) RFU | 10,691 (3,009) RFU | 11,034 (1204) RFU |  | 17,169 (4,228) RFU |  |  |
| GlcNAcβ1,3(GlcNAcβ1,6)GalNAcα-Sp8 | 46,840 (6,520) RFU |  | 23,756 (2,105) RFU | 35,858 (4,079) RFU | 12,183 (1,524) RFU |  |  |

Reference: PMC3960879 (Biology, 2013)
